According to PMC4061985 (Journal of immunology (Baltimore, Md. : 1950), 2009):
Residues, ends and D or L forms follow the SMILES beside them.

Biological target: HLA-DR0901 protein (Homo sapiens, UniProt P01903+P01911, A100R/A103E/D57H/D86V/F55Y/F60I/F76Y/I96F/K127E/L162R/M171V/P40D/Q125H/Q99R/R33Q/R42F/S133A/S66N/T210M/V115G/W38K/Y107V/Y59G/Y89S)
Assay: Peptide binding competition assay, DR0901

Row | SMILES | Kd
1 | CC[C@H](C)[C@H](NC(=O)[C@H](CCCCN)NC(=O)[C@H](CC(=O)O)NC(=O)[C@H](CC(C)C)NC(=O)[C@H](CO)NC(=O)[C@H](Cc1ccc(O)cc1)NC(=O)[C@H](CC(N)=O)NC(=O)[C@H](Cc1ccccc1)NC(=O)[C@H](CC(N)=O)NC(=O)[C@@H](N)CC(C)C)C(=O)N[C@@H](CC(C)C)C(=O)N[C@H](C(=O)N[C@@H](CC(=O)O)C(=O)O)C(C)C [LNFNYSLDKILVD] (H-LNFNYSLDKILVD-OH) | 330 ± 68 nM
2 | CC[C@H](C)[C@H](NC(=O)[C@H](CCCCN)NC(=O)[C@H](CC(=O)O)NC(=O)[C@H](CC(C)C)NC(=O)[C@H](CO)NC(=O)[C@H](Cc1ccc(O)cc1)NC(=O)[C@H](CC(N)=O)NC(=O)[C@H](Cc1ccccc1)NC(=O)[C@H](CC(N)=O)NC(=O)[C@@H](N)CC(C)C)C(=O)N[C@@H](CCSC)C(=O)N[C@H](C(=O)N[C@@H](CC(=O)O)C(=O)O)C(C)C [LNFNYSLDKIMVD] (H-LNFNYSLDKIMVD-OH) | 280 ± 61 nM
3 | CC[C@H](C)[C@H](NC(=O)[C@H](CCCCN)NC(=O)[C@H](CC(=O)O)NC(=O)[C@H](CC(C)C)NC(=O)[C@H](CO)NC(=O)[C@H](Cc1ccc(O)cc1)NC(=O)[C@H](CC(N)=O)NC(=O)[C@H](Cc1ccccc1)NC(=O)[C@H](CC(N)=O)NC(=O)[C@@H](N)CC(C)C)C(=O)N[C@@H](CC(N)=O)C(=O)N[C@H](C(=O)N[C@@H](CC(=O)O)C(=O)O)C(C)C [LNFNYSLDKINVD] (H-LNFNYSLDKINVD-OH) | 2600 nM
4 | CC[C@H](C)[C@H](NC(=O)[C@H](CCCCN)NC(=O)[C@H](CC(=O)O)NC(=O)[C@H](CC(C)C)NC(=O)[C@H](CO)NC(=O)[C@H](Cc1ccc(O)cc1)NC(=O)[C@H](CC(N)=O)NC(=O)[C@H](Cc1ccccc1)NC(=O)[C@H](CC(N)=O)NC(=O)[C@@H](N)CC(C)C)C(=O)N1CCC[C@H]1C(=O)N[C@H](C(=O)N[C@@H](CC(=O)O)C(=O)O)C(C)C [LNFNYSLDKIPVD] (H-LNFNYSLDKIPVD-OH) | 1700 nM
5 | CC[C@H](C)[C@H](NC(=O)[C@H](CCCCN)NC(=O)[C@H](CC(=O)O)NC(=O)[C@H](CC(C)C)NC(=O)[C@H](CO)NC(=O)[C@H](Cc1ccc(O)cc1)NC(=O)[C@H](CC(N)=O)NC(=O)[C@H](Cc1ccccc1)NC(=O)[C@H](CC(N)=O)NC(=O)[C@@H](N)CC(C)C)C(=O)N[C@@H](CCCNC(=N)N)C(=O)N[C@H](C(=O)N[C@@H](CC(=O)O)C(=O)O)C(C)C [LNFNYSLDKIRVD] (H-LNFNYSLDKIRVD-OH) | 6700 nM
6 | CC[C@H](C)[C@H](NC(=O)[C@H](CCCCN)NC(=O)[C@H](CC(=O)O)NC(=O)[C@H](CC(C)C)NC(=O)[C@H](CO)NC(=O)[C@H](Cc1ccc(O)cc1)NC(=O)[C@H](CC(N)=O)NC(=O)[C@H](Cc1ccccc1)NC(=O)[C@H](CC(N)=O)NC(=O)[C@@H](N)CC(C)C)C(=O)N[C@@H](CO)C(=O)N[C@H](C(=O)N[C@@H](CC(=O)O)C(=O)O)C(C)C [LNFNYSLDKISVD] (H-LNFNYSLDKISVD-OH) | 770 ± 100 nM
7 | CC[C@H](C)[C@H](NC(=O)[C@H](CCCCN)NC(=O)[C@H](CC(=O)O)NC(=O)[C@H](CC(C)C)NC(=O)[C@H](CO)NC(=O)[C@H](Cc1ccc(O)cc1)NC(=O)[C@H](CC(N)=O)NC(=O)[C@H](Cc1ccccc1)NC(=O)[C@H](CC(N)=O)NC(=O)[C@@H](N)CC(C)C)C(=O)N[C@@H](Cc1c[nH]c2ccccc12)C(=O)N[C@H](C(=O)N[C@@H](CC(=O)O)C(=O)O)C(C)C [LNFNYSLDKIWVD] (H-LNFNYSLDKIWVD-OH) | 530 ± 50 nM
8 | CC[C@H](C)[C@H](NC(=O)[C@H](CCCCN)NC(=O)[C@H](CC(=O)O)NC(=O)[C@H](CC(C)C)NC(=O)[C@H](CO)NC(=O)[C@H](Cc1ccc(O)cc1)NC(=O)[C@H](CC(N)=O)NC(=O)[C@H](Cc1ccccc1)NC(=O)[C@H](CC(N)=O)NC(=O)[C@@H](N)CC(C)C)C(=O)N[C@@H](Cc1ccc(O)cc1)C(=O)N[C@H](C(=O)N[C@@H](CC(=O)O)C(=O)O)C(C)C [LNFNYSLDKIYVD] (H-LNFNYSLDKIYVD-OH) | 240 ± 33 nM
9 | CC[C@H](C)[C@H](NC(=O)[C@H](CCSC)NC(=O)[C@H](CC(=O)O)NC(=O)[C@H](CC(C)C)NC(=O)[C@H](CO)NC(=O)[C@H](Cc1ccc(O)cc1)NC(=O)[C@H](CC(N)=O)NC(=O)[C@H](Cc1ccccc1)NC(=O)[C@H](CC(N)=O)NC(=O)[C@@H](N)CC(C)C)C(=O)N[C@H](C(=O)N[C@H](C(=O)N[C@@H](CC(=O)O)C(=O)O)C(C)C)[C@@H](C)CC [LNFNYSLDMIIVD] (H-LNFNYSLDMIIVD-OH) | 24 ± 5 nM
10 | CC[C@H](C)[C@H](NC(=O)[C@H](CC(N)=O)NC(=O)[C@H](CC(=O)O)NC(=O)[C@H](CC(C)C)NC(=O)[C@H](CO)NC(=O)[C@H](Cc1ccc(O)cc1)NC(=O)[C@H](CC(N)=O)NC(=O)[C@H](Cc1ccccc1)NC(=O)[C@H](CC(N)=O)NC(=O)[C@@H](N)CC(C)C)C(=O)N[C@H](C(=O)N[C@H](C(=O)N[C@@H](CC(=O)O)C(=O)O)C(C)C)[C@@H](C)CC [LNFNYSLDNIIVD] (H-LNFNYSLDNIIVD-OH) | 27 ± 1 nM
11 | CC[C@H](C)[C@H](NC(=O)[C@@H](NC(=O)[C@@H]1CCCN1C(=O)[C@H](CC(=O)O)NC(=O)[C@H](CC(C)C)NC(=O)[C@H](CO)NC(=O)[C@H](Cc1ccc(O)cc1)NC(=O)[C@H](CC(N)=O)NC(=O)[C@H](Cc1ccccc1)NC(=O)[C@H](CC(N)=O)NC(=O)[C@@H](N)CC(C)C)[C@@H](C)CC)C(=O)N[C@H](C(=O)N[C@@H](CC(=O)O)C(=O)O)C(C)C [LNFNYSLDPIIVD] (H-LNFNYSLDPIIVD-OH) | 36 ± 12 nM
12 | CC[C@H](C)[C@H](NC(=O)[C@H](CCCNC(=N)N)NC(=O)[C@H](CC(=O)O)NC(=O)[C@H](CC(C)C)NC(=O)[C@H](CO)NC(=O)[C@H](Cc1ccc(O)cc1)NC(=O)[C@H](CC(N)=O)NC(=O)[C@H](Cc1ccccc1)NC(=O)[C@H](CC(N)=O)NC(=O)[C@@H](N)CC(C)C)C(=O)N[C@H](C(=O)N[C@H](C(=O)N[C@@H](CC(=O)O)C(=O)O)C(C)C)[C@@H](C)CC [LNFNYSLDRIIVD] (H-LNFNYSLDRIIVD-OH) | 53 ± 10 nM
13 | CC[C@H](C)[C@H](NC(=O)[C@H](CO)NC(=O)[C@H](CC(=O)O)NC(=O)[C@H](CC(C)C)NC(=O)[C@H](CO)NC(=O)[C@H](Cc1ccc(O)cc1)NC(=O)[C@H](CC(N)=O)NC(=O)[C@H](Cc1ccccc1)NC(=O)[C@H](CC(N)=O)NC(=O)[C@@H](N)CC(C)C)C(=O)N[C@H](C(=O)N[C@H](C(=O)N[C@@H](CC(=O)O)C(=O)O)C(C)C)[C@@H](C)CC [LNFNYSLDSIIVD] (H-LNFNYSLDSIIVD-OH) | 110 ± 45 nM
14 | CC[C@H](C)[C@H](NC(=O)[C@H](Cc1ccc(O)cc1)NC(=O)[C@H](CC(=O)O)NC(=O)[C@H](CC(C)C)NC(=O)[C@H](CO)NC(=O)[C@H](Cc1ccc(O)cc1)NC(=O)[C@H](CC(N)=O)NC(=O)[C@H](Cc1ccccc1)NC(=O)[C@H](CC(N)=O)NC(=O)[C@@H](N)CC(C)C)C(=O)N[C@H](C(=O)N[C@H](C(=O)N[C@@H](CC(=O)O)C(=O)O)C(C)C)[C@@H](C)CC [LNFNYSLDYIIVD] (H-LNFNYSLDYIIVD-OH) | 41 ± 10 nM
15 | CC[C@H](C)[C@H](NC(=O)[C@H](CCCCN)NC(=O)[C@H](Cc1c[nH]cn1)NC(=O)[C@H](CC(C)C)NC(=O)[C@H](CO)NC(=O)[C@H](Cc1ccc(O)cc1)NC(=O)[C@H](CC(N)=O)NC(=O)[C@H](Cc1ccccc1)NC(=O)[C@H](CC(N)=O)NC(=O)[C@@H](N)CC(C)C)C(=O)N[C@H](C(=O)N[C@H](C(=O)N[C@@H](CC(=O)O)C(=O)O)C(C)C)[C@@H](C)CC [LNFNYSLHKIIVD] (H-LNFNYSLHKIIVD-OH) | 87 ± 8 nM
16 | CC[C@H](C)[C@H](NC(=O)[C@H](CCCCN)NC(=O)[C@H](CC(C)C)NC(=O)[C@H](CC(C)C)NC(=O)[C@H](CO)NC(=O)[C@H](Cc1ccc(O)cc1)NC(=O)[C@H](CC(N)=O)NC(=O)[C@H](Cc1ccccc1)NC(=O)[C@H](CC(N)=O)NC(=O)[C@@H](N)CC(C)C)C(=O)N[C@H](C(=O)N[C@H](C(=O)N[C@@H](CC(=O)O)C(=O)O)C(C)C)[C@@H](C)CC [LNFNYSLLKIIVD] (H-LNFNYSLLKIIVD-OH) | 67 ± 8 nM
17 | CC[C@H](C)[C@H](NC(=O)[C@H](CCCCN)NC(=O)[C@H](CCSC)NC(=O)[C@H](CC(C)C)NC(=O)[C@H](CO)NC(=O)[C@H](Cc1ccc(O)cc1)NC(=O)[C@H](CC(N)=O)NC(=O)[C@H](Cc1ccccc1)NC(=O)[C@H](CC(N)=O)NC(=O)[C@@H](N)CC(C)C)C(=O)N[C@H](C(=O)N[C@H](C(=O)N[C@@H](CC(=O)O)C(=O)O)C(C)C)[C@@H](C)CC [LNFNYSLMKIIVD] (H-LNFNYSLMKIIVD-OH) | 46 ± 2 nM
18 | CC[C@H](C)[C@H](NC(=O)[C@H](CCCCN)NC(=O)[C@H](CC(N)=O)NC(=O)[C@H](CC(C)C)NC(=O)[C@H](CO)NC(=O)[C@H](Cc1ccc(O)cc1)NC(=O)[C@H](CC(N)=O)NC(=O)[C@H](Cc1ccccc1)NC(=O)[C@H](CC(N)=O)NC(=O)[C@@H](N)CC(C)C)C(=O)N[C@H](C(=O)N[C@H](C(=O)N[C@@H](CC(=O)O)C(=O)O)C(C)C)[C@@H](C)CC [LNFNYSLNKIIVD] (H-LNFNYSLNKIIVD-OH) | 93 ± 19 nM
19 | CC[C@H](C)[C@H](NC(=O)[C@H](CCCCN)NC(=O)[C@@H]1CCCN1C(=O)[C@H](CC(C)C)NC(=O)[C@H](CO)NC(=O)[C@H](Cc1ccc(O)cc1)NC(=O)[C@H](CC(N)=O)NC(=O)[C@H](Cc1ccccc1)NC(=O)[C@H](CC(N)=O)NC(=O)[C@@H](N)CC(C)C)C(=O)N[C@H](C(=O)N[C@H](C(=O)N[C@@H](CC(=O)O)C(=O)O)C(C)C)[C@@H](C)CC [LNFNYSLPKIIVD] (H-LNFNYSLPKIIVD-OH) | 31 ± 2 nM
20 | CC[C@H](C)[C@H](NC(=O)[C@H](CCCCN)NC(=O)[C@H](CCCNC(=N)N)NC(=O)[C@H](CC(C)C)NC(=O)[C@H](CO)NC(=O)[C@H](Cc1ccc(O)cc1)NC(=O)[C@H](CC(N)=O)NC(=O)[C@H](Cc1ccccc1)NC(=O)[C@H](CC(N)=O)NC(=O)[C@@H](N)CC(C)C)C(=O)N[C@H](C(=O)N[C@H](C(=O)N[C@@H](CC(=O)O)C(=O)O)C(C)C)[C@@H](C)CC [LNFNYSLRKIIVD] (H-LNFNYSLRKIIVD-OH) | 130 ± 19 nM
21 | CC[C@H](C)[C@H](NC(=O)[C@H](CCCCN)NC(=O)[C@H](CO)NC(=O)[C@H](CC(C)C)NC(=O)[C@H](CO)NC(=O)[C@H](Cc1ccc(O)cc1)NC(=O)[C@H](CC(N)=O)NC(=O)[C@H](Cc1ccccc1)NC(=O)[C@H](CC(N)=O)NC(=O)[C@@H](N)CC(C)C)C(=O)N[C@H](C(=O)N[C@H](C(=O)N[C@@H](CC(=O)O)C(=O)O)C(C)C)[C@@H](C)CC [LNFNYSLSKIIVD] (H-LNFNYSLSKIIVD-OH) | 31 ± 3 nM
